Experimental data as given in US8729091B2, “4-phenoxy-nicotinamide or 4-phenoxy-pyrimidine-5-carboxamide compounds” (Hoffmann-La Roche Inc., priority 2010, dated 2014).

Molecular target: T1, human GPBAR1 receptor (Homo sapiens, UniProt Q8TDU6)
T1 construct: expressed in transfected cells
T1 sequence (Q8TDU6 1-330): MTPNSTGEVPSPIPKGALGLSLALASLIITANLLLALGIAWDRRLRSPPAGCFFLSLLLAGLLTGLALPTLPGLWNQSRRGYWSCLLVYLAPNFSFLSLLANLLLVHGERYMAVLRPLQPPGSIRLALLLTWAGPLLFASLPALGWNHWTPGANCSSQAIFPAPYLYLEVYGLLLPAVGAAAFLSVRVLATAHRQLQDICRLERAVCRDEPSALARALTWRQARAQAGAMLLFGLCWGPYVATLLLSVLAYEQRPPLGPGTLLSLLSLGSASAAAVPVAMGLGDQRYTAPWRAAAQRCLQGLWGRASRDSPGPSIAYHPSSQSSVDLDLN
Test: functional cAMP assay in CHO-dhfr(minus) cells expressing human GPBAR1 receptors
Assay type: cell-based
Conditions: cAMP increase (TR-FRET) in CHO-dhfr(minus) cells expressing human GPBAR1; compounds incubated 30 min at 30° C.
Experimental: The final clone was verified by DNA sequence analysis. The plasmid was transfected into CHO cells deficient in dihydrofolate reductase activity (CHO-dhfr−) using Lipofectamine plus (Invitrogen). Clones were isolated in limited dilution conditions and identified by activities in the cAMP assay using lithocholic acid as agonist.
The growth medium was exchanged with Krebs Ringer Bicarbonate buffer with 1 mM IBMX and incubated at 30° C. for 30 min. Compounds were added to a final assay volume of 100 μl and incubated for 30 min at 30° C. […] The time-resolved energy transfer is measured by a TRF reader (Evotec Technologies GmbH, Hamburg Germany), equipped with a ND:YAG laser as excitation source.
EC50 values were determined using Activity Base analysis (ID Business Solution, Limited). […] Specificity for GPBAR1 was tested in non-transfected CHO cells in the same assay as above.

| Compound | EC50 [nM] |
| --- | --- |
| COC(=O)c1cc(Cl)c(Oc2cc(C)ncc2C(=O)N2CCN(C3CC3)c3ccccc32)cc1Cl [Example 65, 2,5-Dichloro-4-[5-(4-cyclopropyl-3,4-dihydro-2H-quinoxaline-1-carbonyl)-2-methyl-pyridin-4-yloxy]-benzoic acid methyl ester] | 20 |
| CCOC(=O)CCNC(=O)c1cc(Cl)c(Oc2cc(C)ncc2C(=O)N2CCN(C3CC3)c3ccccc32)cc1Cl [Example 67, 3-{2,5-Dichloro-4-[5-(4-cyclopropyl-3,4-dihydro-2H-quinoxaline-1-carbonyl)-2-methyl-pyridin-4-yloxy]-benzoylamino}-propionic acid ethyl ester] | 20 |
| Cc1cc(Oc2cc(Cl)c(C(=O)NCCC(=O)O)cc2Cl)c(C(=O)N2CCN(C3CC3)c3ccccc32)cn1 [Example 68, 3-{2,5-Dichloro-4-[5-(4-cyclopropyl-3,4-dihydro-2H-quinoxaline-1-carbonyl)-2-methyl-pyridin-4-yloxy]-benzoylamino}-propionic acid] | 200 |
| COC(=O)CNC(=O)c1cc(Cl)c(Oc2cc(C)ncc2C(=O)N2CCN(C3CC3)c3ccccc32)cc1Cl [Example 69, {2,5-Dichloro-4-[5-(4-cyclopropyl-3,4-dihydro-2H-quinoxaline-1-carbonyl)-2-methyl-pyridin-4-yloxy]-benzoylamino}-acetic acid methyl ester] | 40 |
| Cc1cc(Oc2cc(Cl)c(C(=O)NCC(=O)O)cc2Cl)c(C(=O)N2CCN(C3CC3)c3ccccc32)cn1 [Example 70, {2,5-Dichloro-4-[5-(4-cyclopropyl-3,4-dihydro-2H-quinoxaline-1-carbonyl)-2-methyl-pyridin-4-yloxy]-benzoylamino}-acetic acid] | 400 |
| Cc1cc(Oc2cc(Cl)c(C(=O)Nc3nnn[nH]3)cc2Cl)c(C(=O)N2CCN(C3CC3)c3ccccc32)cn1 [Example 71, 2,5-Dichloro-4-[5-(4-cyclopropyl-3,4-dihydro-2H-quinoxaline-1-carbonyl)-2-methyl-pyridin-4-yloxy]-N-(1H-tetrazol-5-yl)-benzamide] | 100 |
| Cc1cc(Oc2cc(Cl)c(C(=O)NCc3nnn[nH]3)cc2Cl)c(C(=O)N2CCN(C3CC3)c3ccccc32)cn1 [Example 72, 2,5-Dichloro-4-[5-(4-cyclopropyl-3,4-dihydro-2H-quinoxaline-1-carbonyl)-2-methyl-pyridin-4-yloxy]-N-(1H-tetrazol-5-ylmethyl)-benzamide] | 400 |

Now from value to compound:

| EC50 [nM] | Compound |
| --- | --- |
| 1 | Cc1cc(Oc2cc(Cl)ccc2Cl)c(C(=O)N2CCN(C3CC3)c3ccccc32)cn1 [Example 63, (4-Cyclopropyl-3,4-dihydro-2H-quinoxalin-1-yl)-[4-(2,5-dichloro-phenoxy)-6-methyl-pyridin-3-yl]-methanone] |
| 20 | Cc1cc(Oc2cc(Cl)c(Br)cc2Cl)c(C(=O)N2CCN(C3CC3)c3ccccc32)cn1 [Example 64, [4-(4-Bromo-2,5-dichloro-phenoxy)-6-methyl-pyridin-3-yl]-(4-cyclopropyl-3,4-dihydro-2H-quinoxalin-1-yl)-methanone] |
| 300 | Cc1cc(Oc2cc(Cl)c(C(=O)O)cc2Cl)c(C(=O)N2CCN(C3CC3)c3ccccc32)cn1 [Example 66, 2,5-Dichloro-4-[5-(4-cyclopropyl-3,4-dihydro-2H-quinoxaline-1-carbonyl)-2-methyl-pyridin-4-yloxy]-benzoic acid] |
| 50 | Cc1cc(Oc2cc(Cl)ccc2Cl)c(C(=O)N2CCN(C3CC3)c3ccccc32)c(Cl)n1 [Example 73, [2-Chloro-4-(2,5-dichloro-phenoxy)-6-methyl-pyridin-3-yl]-(4-cyclopropyl-3,4-dihydro-2H-quinoxalin-1-yl)-methanone] |
| 22 | O=C(c1cnc(Cl)cc1Oc1cc(Cl)ccc1Cl)N1CCCc2ccccc21 [Example 74, [6-Chloro-4-(2,5-dichloro-phenoxy)-pyridin-3-yl]-(3,4-dihydro-2H-quinolin-1-yl)-methanone] |
| 10 | O=C(c1c[n+]([O-])ccc1Oc1cc(Cl)ccc1Cl)N1CCN(C2CC2)c2ccccc21 [Example 75, (4-Cyclopropyl-3,4-dihydro-2H-quinoxalin-1-yl)-[4-(2,5-dichloro-phenoxy)-1-oxy-pyridin-3-yl]-methanone] |
| 400 | O=C(c1cncnc1Oc1cc(Cl)ccc1Cl)N1CCCc2cc(F)ccc21 [Example 77, [4-(2,5-Dichloro-phenoxy)-pyrimidin-5-yl]-(6-fluoro-3,4-dihydro-2H-quinolin-1-yl)-methanone] |
| 300 | O=C(c1cncnc1Oc1cc(Cl)ccc1Cl)N1CCNc2ccccc21 [Example 78, [4-(2,5-Dichloro-phenoxy)-pyrimidin-5-yl]-(3,4-dihydro-2H-quinoxalin-1-yl)-methanone] |
| 90 | COc1ncccc1N(C)C(=O)c1cncnc1Oc1cc(Cl)ccc1Cl [Example 80, 4-(2,5-Dichloro-phenoxy)-pyrimidine-5-carboxylic acid (2-methoxy-pyridin-3-yl)-methyl-amide] |
